Measurements from patent EP1336409B1 (priority 1995, dated 1997).
pIC50: −log10 of the molar value.

Tested on: spinal pia-arachnoid membranes
Set-up: species or system Macaque nemestrina monkeys
Conditions: read-out: IC50, displacement of [125I]SNX-111 binding

[Nle^12] SNX-111 [SNX-194]
pIC50: 4.39
